Each molecule was assayed against Human immunodeficiency virus type 1 reverse transcriptase (Human immunodeficiency virus 1, UniProt Q72547) (assay: Inhibition of Human immunodeficiency virus 1 reverse transcriptase).
`COc1cccc(SC2=C(C)C(=O)NC(=O)C2COCCO)c1` (centres undefined) was tested, and the IC50 was 20 nM.
`CC1=C(Sc2cccc(C(F)(F)F)c2)C(COCCO)C(=O)NC1=O` (centres undefined) showed an IC50 of 0.52 nM.
`CC1=C(Sc2cccc(F)c2)C(COCCO)C(=O)NC1=O` (centres undefined) gave an IC50 of 1.7 nM.
`CC1=C(Sc2cccc(Cl)c2)C(COCCO)C(=O)NC1=O` (centres undefined) gave an IC50 of 2.2 nM.
Work on `CC1=C(Sc2cccc(Br)c2)C(COCCO)C(=O)NC1=O` (centres undefined) yielded an IC50 of 3.1 nM.
`CC1=C(Sc2cccc(I)c2)C(COCCO)C(=O)NC1=O` (centres undefined) showed an IC50 of 4 nM.
`CC1=C(Sc2cccc([N+](=O)[O-])c2)C(COCCO)C(=O)NC1=O` (centres undefined) showed an IC50 of 5.4 nM.
In the case of `CC1=C(Sc2cccc(O)c2)C(COCCO)C(=O)NC1=O` (centres undefined), the IC50 is reported as 6.9 nM.
For `CC1=C(Sc2cc(C)cc(C)c2)C(COCCO)C(=O)NC1=O` (centres undefined), the IC50 was 24 nM.
Work on `CC1=C(Sc2cc(Cl)cc(Cl)c2)C(COCCO)C(=O)NC1=O` (centres undefined) yielded an IC50 of 27 nM.
Work on `CC(C)C1=C(Sc2ccccc2)C(COCCO)C(=O)NC1=O` (centres undefined) yielded an IC50 of 31 nM.
`CCC1=C(Sc2cc(C)cc(C)c2)C(COCCO)C(=O)NC1=O` (centres undefined) gave an IC50 of 80 nM.
With `Cc1cc(C)cc(SC2=C(C(C)C)C(=O)NC(=O)C2COCCO)c1` (centres undefined) the IC50 was 54 nM.
For `CC1=C(Sc2ccccc2)C(COCc2ccccc2)C(=O)NC1=O` (centres undefined), the IC50 was 111 nM.
`CCOCC1C(=O)NC(=O)C(CC)=C1Sc1ccccc1` (centres undefined) showed an IC50 of 100 nM.
In the case of `CCOCC1C(=S)NC(=O)C(CC)=C1Sc1ccccc1` (centres undefined), the IC50 is reported as 137 nM.
Work on `CCOCC1C(=O)NC(=O)C(CC)=C1Sc1cc(C)cc(C)c1` (centres undefined) yielded an IC50 of 210 nM.
`CCOCC1C(=S)NC(=O)C(CC)=C1Sc1cc(C)cc(C)c1` (centres undefined) was tested, and the IC50 was 300 nM.
Molecule `CCC1=C(Sc2ccccc2)C(COC2CCCCC2)C(=S)NC1=O` (centres undefined) has an IC50 of 240 nM.
`CCC1=C(Sc2ccccc2)C(COCC2CCCCC2)C(=S)NC1=O` (centres undefined) was tested, and the IC50 was 375 nM.
In the case of `CCC1=C(Sc2ccccc2)C(COCc2ccc(C)cc2)C(=S)NC1=O` (centres undefined), the IC50 is reported as 422 nM.
`CCC1=C(Sc2ccccc2)C(COCc2ccc(Cl)cc2)C(=S)NC1=O` (centres undefined) was tested, and the IC50 was 404 nM.
`CCC1=C(Sc2ccccc2)C(COCCc2ccccc2)C(=S)NC1=O` (centres undefined) was tested, and the IC50 was 473 nM.
With `CCOCC1C(=O)NC(=O)C(CC)=C1Sc1cc(Cl)cc(Cl)c1` (centres undefined) the IC50 was 597 nM.
